# Measurements reported in patent publication US9102667B2, “N-arylaminomethylene benzothiophenones for treatment of cardiovascular disease” (FORSCHUNGSVERBUND BERLIN E.V., priority 2011, dated 2015).
# pIC50: −log10 of the molar value.
# Biological target: AKAP-PKA interaction (Homo sapiens, UniProt P13861)
# Assay: AKAP-PKA interaction (disruption) assays of Examples 1-3: alpha screen, surface plasmon resonance, ELISA (combined classification)
# Assay type: binding
# Details: absolute values stated in structure-activity text; method not specified; read-out: IC50
# Description: The inhibition of the interaction of the alpha RII subunit of protein kinase A with AKAP18-alpha by the compounds according to the invention is determined as follows:
# The experiment measures the suitability of candidate compounds for the inhibition of the interaction between AKAP and PKA. An AKAP-GST fusion construct is immobilized on glutathione donor beads and His-RII-alpha on Ni-chelate acceptor beads. To the extent that the partners interact, singlet oxygen from the donor beads becomes free and activates the fluorescence emission of the acceptor beads. The fluorescence emission determined in the microplate reader is proportional to the intensity of interaction of the protein partners. The IC50 is determined from the results of the measurement of several concentrations of one candidate compound.
# The details of the process were as follows: Two protein Solutions A and B are produced in a buffer (phosphate NaCl buffer, 0.1% polysorbate 80, 0.1% [=1 mg/ml BSA]). These contain (A) the histidine-6-tagged fusion construct RII-alpha-His (3.125 nmol/l) and (B) the glutathione-S-transferase-tagged fusion construct GST-AKAP18-alpha-d2-10 (6.25 nmol/l). One volume unit each of protein solution and bead suspension are incorporated, specifically Solution A of the His6-tagged protein with Ni-chelate bead suspension and Solution B of the GST-fusion protein with glutathione beads (Perkin Elmer Product No. 6765302), and in doing so the concentrations are selected according to the manufacturers information. The Mixtures A and B obtained are incubated for one hour at room temperature (RT) in the dark.
# Then, 5 μl of Mixture A is laid out for each hole on a 384-hole microtiter plate, and then to start with 0.5 μl of a solution of the candidate compound in DMSO is added and then 5 μl of Mixture B. The resulting reaction mixture is incubated 1 h at RT in the dark. Then, the reaction is tempered to 28.5° C., and the emitter intensity of the acceptor is determined in a microtiter plate reader after excitation of the donor at 680 nm.
# The relative inhibition of the AKAP-PKA interaction is calculated following the formula: 1−(xc−y)/(z−y) where: X=average of readings (n=3) at concentration c; Y=average of measurement data from bead-bead check (n=6); Z=average of measurement data from protein-protein check (n=6). Results:
# Surface plasmon resonance analyses for competition in solution were performed with streptavidin-coated sensor chips (GE Healthcare, Uppsala, Sweden). The N-terminal biotinylated peptide AKAP18d-L314E was used, which is a variant of the RH-binding domains of AKAP18δ (Hundsrucker et al., Biochem. J. 396, 297-306, [2006]). The binding of the regulatory subunit of the human PKAII-α or RII-β onto the peptide surface of the AKAP18δ-L314E, or the inhibition of this binding to RII by the compounds of the invention, was measured on a Biacaore 3000 machine (Biacore/GE Healthcare) as previously described (Henn et al., J Biol Chem 279, 26654-26665 [2004]). The compounds were injected for 60 sec at a flow rate of 30 μl/min, and the dissociation phase was measured for 180 sec.
# Multititer plates (Corning B.V. Life Sciences, Schiphol-Rijk, Netherlands) were coated with recombinantly produced PKA RIIα (15 ng/hole) by incubation with phosphate buffer containing protease inhibitors (1 h, 22° C.). The plate was then blocked with lactoprotein.
# GST-AKA7δ (Hundsrucker et al., Biochem. J. 396, 297-306, [2006]; 15 ng/well) was incubated with and without candidate compounds on the plate for 1 h at 22° C. After washing, it was incubated with antibodies (rabbit) against AKA7δ (A18δ3) and then with a peroxidase-conjugated antirabbit antibody and developed with dye substrate (LumiLight Western Blotting Substrate, Roche Diagnostics, Mannheim, Germany). Luminescence activity was determined in a microplate reader (GeniosPro, Tecan, Durham, N.C., United States) at 10 msec integration.
# Sequence of AKAP-PKA interaction (P13861 2-404 limits assumed): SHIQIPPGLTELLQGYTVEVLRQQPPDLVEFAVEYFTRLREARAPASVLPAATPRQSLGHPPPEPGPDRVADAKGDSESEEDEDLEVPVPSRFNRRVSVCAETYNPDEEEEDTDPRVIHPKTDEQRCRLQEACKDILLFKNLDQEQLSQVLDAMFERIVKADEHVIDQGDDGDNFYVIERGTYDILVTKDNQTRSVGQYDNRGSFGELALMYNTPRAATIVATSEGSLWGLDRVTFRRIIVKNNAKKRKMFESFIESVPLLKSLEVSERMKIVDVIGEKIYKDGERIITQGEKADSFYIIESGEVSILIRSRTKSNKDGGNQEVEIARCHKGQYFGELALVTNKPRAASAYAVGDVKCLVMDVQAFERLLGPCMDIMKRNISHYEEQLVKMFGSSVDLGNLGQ
row,pIC50,SMILES
1,5.30 to 6.00,"O=C1/C(=C/Nc2ncc([N+](=O)[O-])s2)Sc2ccccc21 [T2/12, (2Z)-2-[[(5-nitrothiazole-2-yl)amino]methylene]benzothiophene-3-one]"
2,~4.10,"O=C1/C(=C/Nc2ncc[nH]2)Sc2ccccc21 [T2/1, (2Z)-2-[(1H-imidazole-2-ylamino)methylene]benzothiophene-3-one]"
3,~4.10,"O=C1/C(=C/Nc2nccs2)Sc2ccccc21 [T2/6, (2Z)-2-[(thiazole-2-ylamino)methylene]benzothiophene-3-one]"

# Same assay, conditions: alkyl substituent on heteroaromatic pentacycle
row,IC50 relative to that of the unsubstituted mother compound,SMILES
1,about 50%,"Cc1csc(N/C=C2\Sc3ccccc3C2=O)n1 [T2/10, (2Z)-2-[[(4-methylthiazole-2-yl)amino]methylene]benzothiophene-3-one]"

# Same assay, conditions: assays of Examples 1-3
row,Activity in AKAP-PKA interaction assays (in words),SMILES
1,abolished activity,"Cc1ccccc1N/C=C1/Sc2ccccc2C1=O [T3/4, (2E)-2-[(2-methylanilino)methylene]benzothiophen-3-one]"
2,barely detectable activity,"O=C1/C(=C\Nc2cccc3ccccc23)Sc2ccccc21 [T2/39, (2e)-2-[(1-naphthylamino)methylene]benzothiophene-3-one]"

# Same assay, conditions: class from IC50 values in assays of Examples 1, 2 or 3
row,SMILES,Activity (IC50 class)
1,"N=C(N)c1cnc(N/C=C2\Sc3ccccc3C2=O)s1 [T2/21, 2-[[(Z)-(3-oxobenzothiophen-2-ylidene)methyl]amino]thiazole-5-carboxamidine]",2-[[(Z)-(3-oxobenzothiophen-2-ylidene)methyl]amino]thiazole-5-carboxamidine Activity: A/B
2,"O=C1/C(=C/Nc2nc3ccccc3s2)Sc2ccccc21 [T2/23, (2Z)-2-[(1,3-benzothiazol-2-ylamino)methylene]-benzothiophen-3-one]","(2Z)-2-[(1,3-benzothiazol-2-ylamino)methylene]- benzothiophen-3-one Activity A/B"
3,"O=C(O)c1ccc(N/C=C2\Oc3ccccc3C2=O)cc1 [T2/58, 4-[[(z)-(3-oxobenzofuran-2-ylidene)methyl]amino]benzoic acid]",4-[[(z)-(3-oxobenzofuran-2-ylidene)methyl]amino]benzoic acid Activity: B/C

# Same assay, conditions: class from IC50 values in assays of Examples 1, 2 or 3; read-out: Activity (IC50 class)
row,SMILES,pIC50
1,"O=C1/C(=C/Nc2nc3ccc(C(F)(F)F)cc3s2)Sc2ccccc21 [T2/27, (2Z)-2-[[[6-(trifluoromethyl)-1,3-benzothiazole-2-yl]amino]methylene]benzothiophene-3-one]",3.12 to 3.60
2,"O=C1/C(=N/Nc2nccs2)Sc2ccccc21 [T2/50, (2Z)-2-(thiazole-2-ylhydrazono)benzothiophene-3-one]",> 4.60
3,"NC(=O)c1cnc(N/C=C2\Sc3ccccc3C2=O)s1 [T2/19, 2-[[(z)-(3-oxobenzothiophene-2-ylidene)methyl]amino]thiazole-5-carboxylic acid amide]",> 3.82
4,"O=C1/C(=C/Nc2ncc3ccccc3n2)Sc2ccccc21 [T2/42, (2Z)-2-[(chinazolin-2-ylamino)methylene]benzothiophene-3-one]",3.12 to 3.60
5,"O=C1/C(=C/Nc2ccccc2[N+](=O)[O-])Sc2ccccc21 [T2/33, (2Z)-2-[(2-nitroanilino)methylene]benzothiophene-3-one]",> 3.82
6,"O=C1/C(=C/Nc2ncns2)Sc2ccccc21 [T2/30, (2Z)-2-[(1,2,4-thiadiazol-5-ylamino)methylene]benzothiophene-3-one]",> 3.82
7,"O=C1/C(=C/Nc2ncc[nH]2)Sc2ccccc21 [T2/1, (2Z)-2-[(1H-imidazole-2-ylamino)methylene]benzothiophene-3-one]",> 3.82
8,"O=C1/C(=C/Nc2nc3ccc([N+](=O)[O-])cc3s2)Sc2ccccc21 [T2/25, (2Z)-2-[[(6-nitro-1,3-benzothiazole-2-yl)amino]methylene]benzothiophene-3-one]",> 3.60
9,"Cn1c(N/C=C2\Sc3ccccc3C2=O)nc2ccccc21 [T2/3, (2Z)-2-[[(1-methylbenzimidazole-2-yl)amino]methylene]benzothiophene-3-one]",> 3.82
10,"O=C1/C(=C/Nc2nncs2)Sc2ccccc21 [T2/31, (2Z)-2-[(1,3,4-thiadiazol-2-ylamino)methylene]benzothiophene-3-one]",> 3.82
11,"O=C1/C(=C/Nc2nc3ccc(Br)cc3s2)Sc2ccccc21 [T2/28, (2Z)-2-[[(6-bromo-1,3-benzothiazole-2-yl)amino]methylene]benzothiophene-3-one]",> 3.82
12,"O=C1/C(=C/Nc2nnc(Br)s2)Sc2ccccc21 [T2/32, (2Z)-2-[[(5-bromo-1,3,4-thiadiazol-2-yl)amino]methylene]benzothiophene-3-one]",> 3.82
13,"O=C1/C(=C/Nc2nc3c(F)cc(F)cc3s2)Sc2ccccc21 [T2/26, (2Z)-2-[[(4,6-difluoro-1,3-benzothiazole-2-yl)amino]methylene]benzothiophene-3-one]",3.12 to 3.60

# Continued, values first:
row,pIC50,SMILES
1,> 3.82,"O=C1/C(=C/Nc2ncc(Cl)s2)Sc2ccccc21 [T2/14, (2Z)-2-[[(5-chlorothiazole-2-yl)amino]methylene]benzothiophene-3-one]"
2,> 4.60,"O=C1/C(=N/Nc2ncc([N+](=O)[O-])s2)Sc2ccccc21 [T2/52, (2Z)-2-[(5-nitrothiazole-2-yl)hydrazono]benzothiophene-3-one]"
3,> 3.60,"CNC(=O)c1cnc(N/C=C2\Sc3ccccc3C2=O)s1 [T2/20, n-methyl-2-[[(z)-(3-oxobenzothiophene-2-ylidene)methyl]amino]thiazole-5-carboxylic acid amide]"
4,> 4.60,"O=C1/C(=C/Nc2ncc([N+](=O)[O-])s2)Sc2ccccc21 [T2/12, (2Z)-2-[[(5-nitrothiazole-2-yl)amino]methylene]benzothiophene-3-one]"
5,3.12 to 3.60,"O=C1/C(=C/Nc2nc3ccccc3s2)Oc2ccccc21 [T2/57, (2Z)-2-[(1,3-benzothiazole-2-ylamino)methylene]benzofuran-3-one]"
6,3.12 to 3.60,"O=C1/C(=C/Nc2nc3cc(Cl)ccc3o2)Sc2ccccc21 [T2/5, (2Z)-2-[[(5-chloro-1,3-benzoxazole-2-yl)amino]methylene]benzothiophene-3-one]"
7,3.12 to 3.60,"O=C1/C(=C/Nc2cc([N+](=O)[O-])ccc2O)Sc2ccccc21 [T2/35, (2Z)-2-[(2-hydroxy-5-nitro-anilino)methylene]benzothiophene-3-one]"
8,> 4.30,"O=C1/C(=C/Nc2ncc(Br)s2)Sc2ccccc21 [T2/13, (2Z)-2-[[(5-bromothiazole-2-yl)amino]methylene]benzothiophene-3-one]"
9,3.12 to 3.60,"O=C1/C(=C\Nc2ccc([N+](=O)[O-])cc2)Sc2ccccc21 [T2/34, (2e)-2-[(4-nitroanilino)methylene]benzothiophene-3-one]"
10,3.12 to 3.60,"O=C1/C(=C/Nc2cccc(Br)c2)Sc2ccccc21 [T2/37, (2Z)-2-[(3-bromoanilino)methylene]benzothiophene-3-one]"
11,3.12 to 3.60,"O=C1/C(=C/Nc2ccc3scnc3c2)Sc2ccccc21 [T2/29, (2Z)-2-[(1,3-benzothiazole-5-ylamino)methylene]benzothiophene-3-one]"
12,> 3.60,"O=C(O)c1cnc(N/C=C2\Sc3ccccc3C2=O)s1 [T2/16, 2-[[(z)-(3-oxobenzothiophene-2-ylidene)methyl]amino]thiazole-5-carboxylic acid]"
13,> 4.60,"Cc1csc(N/N=C2\Sc3ccccc3C2=O)n1 [T2/51, (2Z)-2-[(4-methylthiazole-2-yl)hydrazono]benzothiophene-3-one]"
14,> 3.82,"O=C1/C(=C/Nc2nccs2)Sc2ccccc21 [T2/6, (2Z)-2-[(thiazole-2-ylamino)methylene]benzothiophene-3-one]"
15,> 4.60,"O=C(O)c1cnc(N/N=C2\Sc3ccccc3C2=O)s1 [T2/53, 2-[(2Z)-2-(3-oxobenzothiophene-2-ylidene)hydrazino]thiazole-5-carboxylic acid]"
16,3.12 to 3.60,"O=C1/C(=C\Nc2cccc3ccccc23)Sc2ccccc21 [T2/39, (2e)-2-[(1-naphthylamino)methylene]benzothiophene-3-one]"
17,> 3.82,"O=C(O)c1ccc(N/C=C2\Cc3ccccc3C2=O)cc1 [T2/56, 4-[[(e)-(1-oxoindan-2-ylidene)methyl]amino]benzoic acid]"
18,> 4.30,"Cc1coc(N/C=C2\Sc3ccccc3C2=O)n1 [T2/4, (2Z)-2-[[(4-methyloxazole-2-yl)amino]methylene]benzothiophene-3-one]"
